Reference: US11084842B2 (SUNSHINE LAKE PHARMA CO., LTD., priority 2018, dated 2021)

Key:
[1] = system: blood glucose of SD rats; assay: Oral glucose tolerance test in SD rats (Test Method 2); type: in vivo; details: glucose 4.0 g/kg, decline rate of AUCGlu 0-60min
Description: The following methods were used to evaluate the effects of the compound of the invention on improving oral glucose tolerance and glycosuria excretion.
The weights and the fasting blood glucose levels of male SD rats were measured after an overnight 15-hours fast. The rats were grouped by their weights and fasting plasma glucose levels. […] After 30 minutes, the blood glucose level (i.e., zero point blood glucose) of each group was measured, and then each group was immediately administered glucose (4.0 g/kg) once by gavage. The blood was drawn from the caudal vein of the […] at 15, 30 and 60 minutes after glucose administration and the blood glucose levels were measured continuously on blood-glucose meter. The decline rate of the area under the blood sugar curve within 60 minutes (AUCGlu 0-60min) after sugar loading was calculated.

[2] = molecular target: T1, human SGLT1 (Homo sapiens, UniProt P13866); assay: Test of inhibitory activity on SGLT1 ([14C]-AMG uptake in CHO cells expressing human SGLT1); type: cell-based; details: CHO cells expressing human SGLT1, 0.5 μM [14C]-AMG, 37° C., 1 hour
T1 construct: expressed in transfected cells; host or cells: CHO cells (FIP-in CHO; mock-transfected cells as control)
T1 sequence (P13866 1-664): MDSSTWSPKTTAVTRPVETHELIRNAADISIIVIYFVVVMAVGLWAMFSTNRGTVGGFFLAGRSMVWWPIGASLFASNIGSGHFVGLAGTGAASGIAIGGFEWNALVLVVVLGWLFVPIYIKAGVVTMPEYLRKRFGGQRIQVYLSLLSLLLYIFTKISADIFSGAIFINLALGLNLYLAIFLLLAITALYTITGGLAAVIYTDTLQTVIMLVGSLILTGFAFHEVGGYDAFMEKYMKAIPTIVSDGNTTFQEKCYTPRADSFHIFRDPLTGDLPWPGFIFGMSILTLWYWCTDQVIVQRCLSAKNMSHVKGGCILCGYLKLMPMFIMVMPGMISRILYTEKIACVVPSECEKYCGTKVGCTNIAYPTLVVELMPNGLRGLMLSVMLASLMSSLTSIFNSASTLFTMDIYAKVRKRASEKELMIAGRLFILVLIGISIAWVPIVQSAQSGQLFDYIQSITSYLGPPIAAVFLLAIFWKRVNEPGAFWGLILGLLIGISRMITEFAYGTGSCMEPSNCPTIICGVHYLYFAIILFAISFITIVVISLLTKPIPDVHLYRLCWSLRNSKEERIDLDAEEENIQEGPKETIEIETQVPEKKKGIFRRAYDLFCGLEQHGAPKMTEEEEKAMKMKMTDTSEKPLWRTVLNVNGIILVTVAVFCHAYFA
Description: The following methods can be used to determine the inhibitory activity of the compound of the invention on SGLT-1.
Mock-transfected FIP-in CHO cells (3×10^4 cells) and expressing human SGLT1 CHO cells were seeded into 96-well plates respectively. The cells were incubated for 12 hours. Each well of the 96-well plate was washed with 150 μL of sodium-free buffer once. To each well was added 50 μL of sodium-containing buffer containing test compounds having different concentrations and 0.5 μM [^14C]-AMG. The incubation mixture was incubated at 37° C. for 1 hour. To each well was added 150 μL of precooled sodium-free buffer to terminate the reaction. The cell pellet was washed with sodiumfree buffer three times and the residual liquid in well was removed. To each well was added 20 μL of precooled 100 mM NaOH. The 96-well plate was vibrated at 900 rpm for 5 minutes. Scintillation fluid (80 μL) was added to each well which was then vibrated at 600 rpm for 5 minutes. The amount of ^14C-AMG was quantitatively detected using liquid scintillation.

Compound	hypoglycemic rate (%) ([1]; dosage 1 mg/kg by gavage)	IC50 [2]	hypoglycemic rate (%) ([1]; dosage 0.1 mg/kg by gavage)
Cc1ccc([C@]23OC[C@](C(C)(C)O)(O2)[C@@H](O)[C@H](O)[C@H]3O)cc1Cc1ccc(CCCC(=O)NC(C)(C)C(=O)NCCN(C)C)cc1 [Example 2]	31.64%		
Cc1ccc([C@]23OC[C@](C(C)(C)O)(O2)[C@@H](O)[C@H](O)[C@H]3O)cc1Cc1ccc(CCCC(=O)N[C@@H](C)C(=O)NCCN(C)C)cc1 [Example 6, N-[(1S)-2-(2-dimethylaminoethylamino)-1-methyl-2-oxo-ethyl]-4-[4-[[2-methyl-5-[(1S,2S,3S,4R,5S)-2,3,4-trihydroxy-1-(1-hydroxy-1-methyl-ethyl)-6,8-dioxabicyclo[3.2.1]octane-5-yl]phenyl]methyl]phenyl]butanamide]	33.19%		
Cc1ccc([C@]23OC[C@](C(C)(C)O)(O2)[C@@H](O)[C@H](O)[C@H]3O)cc1Cc1ccc(CCCC(=O)NC2(C(=O)NCCN(C)C)CCCC2)cc1 [Example 8, N-(2-dimethylaminoethyl)-1-[4-[4-[[2-methyl-5-[(1S,2S,3S,4R,5S)-2,3,4-trihydroxy-1-(1-hydroxy-1-methyl-ethyl)-6,8-dioxabicyclo[3.2.1]octane-5-yl]phenyl]methyl]phenyl]butylamide]cyclopentyl formamide]		0.24 nM	
Cc1ccc([C@]23OC[C@](C(C)(C)O)(O2)[C@@H](O)[C@H](O)[C@H]3O)cc1Cc1ccc(CCCC(=O)N[C@H](C(=O)NCCN(C)C)C2CC2)cc1 [Example 10, N-[(1S)-1-cyclopropyl-2-(2-dimethylaminoethylamino)-2-oxo-ethyl]-4-[4-[[2-methyl-5-[(1S,2S,3S,4R,5S)-2,3,4-trihydroxy-1-(1-hydroxy-1-methyl-ethyl)-6,8-dioxabicyclo[3.2.1]octane-5-yl]phenyl]methyl]phenyl]butanamide]		1.61 nM	
Cc1ccc([C@]23OC[C@](C(C)(C)O)(O2)[C@@H](O)[C@H](O)[C@H]3O)cc1Cc1ccc(CCCC(=O)NC2(C(=O)NCCN(C)C)CCC2)cc1 [Example 11]		0.23 nM	
CCC(CC)(NC(=O)CCCc1ccc(Cc2cc([C@]34OC[C@](C(C)(C)O)(O3)[C@@H](O)[C@H](O)[C@H]4O)ccc2C)cc1)C(=O)NCCN(C)C [Example 12, N-(2-dimethylaminoethyl)-2-ethyl-2-[4-[4-[[2-methyl-5-[(1S,2S,3S,4R,5S)-2,3,4-trihydroxy-1-(1-hydroxy-1-methyl-ethyl)-6,8-dioxabicyclo[3.2.1]octane-5-yl]phenyl]methyl]phenyl]butanamido]butanamide]		1.51 nM	
Cc1ccc([C@]23OC[C@](C)(O2)[C@@H](O)[C@H](O)[C@H]3O)cc1Cc1ccc(CCCC(=O)NC(C)(C)C(=O)NCCN(C)C)cc1 [Example 13]		2.9 nM	
CC[C@@]12CO[C@@](c3ccc(C)c(Cc4ccc(CCCC(=O)NC(C)(C)C(=O)NCCN(C)C)cc4)c3)(O1)[C@H](O)[C@@H](O)[C@@H]2O [Example 14, N-(2-dimethylaminoethyl)-2-[4-[4-[[5-[(1S,2S,3S,4R,5S)-1-ethyl-2,3,4-trihydroxy-6,8-dioxabicyclo[3.2.1]octane-5-yl]-2-methyl-phenyl]methyl]phenyl]butanamido]-2-methyl-propionamide]		0.57 nM	
Cc1ccc([C@]23OC[C@](C(C)(C)O)(O2)[C@@H](O)[C@H](O)[C@H]3O)cc1Cc1ccc(CCCC(=O)NC2(C(=O)NCCN(C)C)CCCCC2)cc1 [Example 16, N-(2-dimethylaminoethyl)-1-[4-[4-[[2-methyl-5-[(1S,2S,3S,4R,5S)-2,3,4-trihydroxy-1-(1-hydroxy-1-methyl-ethyl)-6,8-dioxabicyclo[3.2.1]octane-5-yl]phenyl]methyl]phenyl]butylamide]cyclohexyl carboxamide]		0.47 nM	30.93%
Cc1ccc([C@]23OC[C@](C)(O2)[C@@H](O)[C@H](O)[C@H]3O)cc1Cc1ccc(CCCC(=O)NC2(C(=O)NCCN(C)C)CCC2)cc1 [Example 17, N-(2-dimethylaminoethyl)-1-[4-[4-[[2-methyl-5-[(1S,2S,3S,4R,5S)-2,3,4-trihydroxy-1-methyl-6,8-dioxabicyclo[3.2.1]octane-5-yl]phenyl]methyl]phenyl]butanamido]cyclobutyl carboxamide]		0.4 nM	
Cc1ccc([C@]23OC[C@](C)(O2)[C@@H](O)[C@H](O)[C@H]3O)cc1Cc1ccc(CCCC(=O)NC2(C(=O)NCCN(C)C)CCCCC2)cc1 [Example 18]		0.43 nM	
Cc1ccc([C@]23OC[C@](C)(O2)[C@@H](O)[C@H](O)[C@H]3O)cc1Cc1ccc(OCCCC(=O)NC2(C(=O)NCCN(C)C)CCC2)cc1 [Example 20, N-(2-dimethylaminoethyl)-1-[4-[4-[[2-methyl-5-[(1S,2S,3S,4R,5S)-2,3,4-trihydroxy-1-methyl-6,8-dioxabicyclo[3.2.1]octane-5-yl]phenyl]methyl]phenoxy]butanamido]cyclobutyl carboxamide]		0.55 nM	
Cc1ccc([C@]23OC[C@](C)(O2)[C@@H](O)[C@H](O)[C@H]3O)cc1Cc1ccc(OCCCC(=O)NC2(C(=O)NCCN(C)C)CCCCC2)cc1 [Example 21, N-(2-dimethylaminoethyl)-1-[4-[4-[[2-methyl-5-[(1S,2S,3S,4R,5S)-2,3,4-trihydroxy-1-methyl-6,8-dioxabicyclo[3.2.1]octane-5-yl]phenyl]methyl]phenoxy]butanamido]cyclohexylcarboxamide]		0.6 nM	
